According to patent publication US5795857A, “Mimetic insect pyrokinin analogs for insect control” (The United States of America as represented by the …, priority 1996, dated 1998):

System: virgin females of Heliothis virescens
Assay: Pheromonotropic assay (topical application)
Assay type: in vivo
Conditions: for dose approaching 100% maximal response, topical application: 15 minutes following topical application
Protocol: The amphiphilic carboranyl analog Cbe--Thr--Pro--Arg--Leu--NH2 was dissolved in water and solutions at concentrations of 5, 10, 25, 60, and 200 pmol/μl were prepared. The cuticular scales along the lateral side of the abdomen were removed with a 1 ml plastic pipet tip attached to house vacuum with a rubber hose. A low vacuum was applied to the apparatus and the pipet tip was gently passed over the cuticle until the scales were drawn by suction. After the scales were removed, 1 μl of peptide solution was applied to the surface of the cuticle and smoothed evenly over the prepared surface. […]
Pupae of Heliothis virescens were obtained from a laboratory colony maintained at the Insect Attractants Behavior and Basic Biology Research Laboratory, USDA-ARS, Gainesville, Fla. The pupae were separated by sex and the females were held in 4-1 cages. Cages were inspected daily for newly eclosed adults which were transferred to new cages and provided with cotton wicks soaked with a 5% sucrose solution. The insects were held at 25°[…] C. and 65%±3% relative humidity with a 12:12 (L:D) photoperiod. Virgin females were used for bioassays 2 and 3 days after eclosion during the 7th-8th hour of the photophase when little or no pheromone is present in the gland (Teal et al., 1993, Can. Entomol., 153:355-366). The cuticular scales were removed from the lateral side of the abdomen using a plastic pipet tip attached to house vacuum using a rubber hose. A low vacuum was applied and the pipet tip was passed gently over the cuticle until the scales were drawn off by suction. Insects were returned to the incubator for 24 h after the scales were removed for most experiments. However, insects were not given a recovery period in studies in which peptides were applied in DMSO (see below).
In initial studies we used dimethyl sulfoxide (DMSO) as a carrier to deliver Hez--PBAN or [6--Pha--Ala^0 ]Lom--MT--II for topical applications. […] We also assessed different carrier solvents for their ability to deliver these two peptides. Peptides were dissolved at a concentration of 500 pmol/μl in: DMSO, water, or 80% acetonitrile:20% water. Solutions were applied to the descaled abdomen in 1 μl of solvent as above. The insects were allowed to incubate for 1 h prior to excision and extraction of the pheromone gland. Extracts were analyzed for the amount of pheromone as above.
The use of water as a carrier for [6--Pha--Ala^0 ]Lom--MT--II was also assessed in dose response and temporal activity studies. For dose response studies [6--Pha--Ala^0 ]Lom--MT--II was dissolved in water at concentrations of 5, 10, 25, 50, 75, 100, 250, 500, 750 and 1000 pmol/μl. Insects were incubated for 60 min after application of 1 μl of solution to the descaled abdomen. In temporal activity studies a 100 pmol/μl dose was selected. For these experiments insects were incubated for periods of 15, 30, 60, 120, or 180 min after application of 1 μl of solution to the descaled abdomen. The ability of the parent peptide, Lom--MT--II, to stimulate pheromone production when applied topically in water was assessed by applying doses of 50, 100, 250 and 500 pmol to the abdomen. Control treatments for this experiment included insects treated with only water and females treated by topical application of 100 pmol of [6--Pha--Ala^0 ]Lom--MT--II. After incubation the sex pheromone glands were excised, extracted and analyzed for the amount of pheromone.

- ED50 (EC50), pheromone production after topical application (1 μl aqueous solution on lateral abdominal surface, FIG. 4): 25 pmoles/female
Substance: Cbe--Thr--Pro--Arg--Leu--NH2
- ED50, pheromone production via topical application (H. virescens, 1 μl aqueous solution): 25 pmol
- time after topical application at which pheromone production is elicited (aqueous solution): about 15 minutes
- dose approaching 100% maximal response, topical application (aqueous solution, listed as carboranyl analog): 60 pmoles/female
- dose approaching 100% maximal response, topical application (aqueous solution, listed as carboranyl peptide): about 60 pmoles/female
- Maximal Response via topical application (dose) (relative to 5 pmoles PBAN via injection): 60 pmol
- concentration giving maximal pheromone stimulation, topical application (topically applied): 60 picomoles/insect
